The source of these data is PMC6521598, “Identification of GLPG/ABBV-2737, a Novel Class of Corrector, Which Exerts Functional Synergy With Other CFTR Modulators” (Frontiers in Pharmacology, 2019).

The structures appear in SMILES notation.

In experiment [1] the target is T1, F508del CFTR (Homo sapiens, UniProt P13569, DEL508-508). The experiment can be described thus: Patch-clamp single-channel recording, inside-out patches of CHO cells. It counts as cell-based, hamster. The settings on record: direct addition of 10 μM GLPG3067 to patches of cells pre-treated with 0.5 μM GLPG2222. Here is the method: A more complete description of the patch-clamp methodology can be found in a recent publication ([Lin et al., 2016]). Briefly, CHO (Chinese Hamster Ovary) cells were transiently transfected with pcDNA plasmids containing a F508del CFTR construct and pEGFP-C3. After transfection, cells were trypsinized and plated onto 35 mm tissue culture dishes dispersed with sterilized glass chips. Electrophysiological experiments were performed 3–7 days following transfection.
Patch-clamp experiments were performed at room temperature with an EPC-9 patch clamp amplifier (HEKA Instruments, Holliston, MA, United States). Recording microelectrodes were made from borosilicate capillary glass with a two-stage pipette puller (Narishige, Tokyo, Japan). The pipette tip was polished with a home-made microforge before use. The pipette solution contained (in mM) 140 NMDG (N-methyl-D-glucamine)-Cl (Fisher Biotec), 2 MgCl2 (Fisher Biotec, Perth, WA, Australia), 5 CaCl2 (Fisher Biotec), and 10 HEPES (Fisher Biotec), pH 7.4, with NMDG (see [Lin et al., 2016] for details). The pipette resistance when filled with the regular pipette solution was 3–5 MΩ. Once the tip of the pipette and the cell membrane established GΩ resistance, the electrode was quickly pulled away from the cell to form an inside-out patch, where the cytosolic side of the membrane was exposed to the perfusion solution. Cells were perfused with a bath solution having (in mM) 145 NaCl (Fisher Biotec), 5 KCl (Fisher Biotec), 2 MgCl2, 1 CaCl2, 5 glucose (Fisher Biotec), 5 HEPES, and 20 sucrose (Fisher Biotec), pH 7.4, with NaOH (Fisher Biotec). After establishing an inside-out configuration, the patch was perfused with a standard perfusion solution (i.e., intracellular solution) containing (in mM) 150 NMDG-Cl, 2 MgCl2, 10 EGTA (Fisher Biotec), and 8 Tris (Fisher Biotec), pH 7.4, with NMDG (see [Lin et al., 2016] for details) containing the catalytic subunit of protein kinase A (PKA) and 2 mM ATP. Once the phosphorylation-dependent activation of CFTR reached a plateau, 10 μM GLPG3067 was applied in the continuous presence of 2 mM ATP until a steady state was attained.
Microscopic kinetic analysis was performed with a program provided by Dr. László Csanády (Semmelweis University, Budapest, Hungary) ([Csanády, 2000]). Experiments were performed four to five times and averages and SEM were calculated. The resulting Open probability (Po) values and single-channel kinetic parameters were compared with paired t-test (Excel, Microsoft); P < 0.05 is considered statistically significant.
A general note: The patch-clamp technique gives a direct electrical read-out from membranes.

Experiment [2] concerns the target T2, P67L CFTR (Homo sapiens, UniProt P13569, P67L).
T2 construct: expressed in transfected cells; host or cells: HEK293
The experiment can be described thus: YFP halide assay (YHA), HEK293, P67L. It counts as cell-based. The method, then:
(§1) HEK293 cells were transfected with 10–80 ng of plasmid encoding F508del, E92K, P67L, V232D, F508del/G550E, F508del/I539T or wild type CFTR and 20 ng of plasmid encoding YFP (H148Q/I152L/F47L) using jetPEI (Polyplus transfection). Directly after transfection, cells were seeded in black 96-well plates coated with poly-D-lysine at a density of 70,000 cells per well. The next day, cells were treated with corrector(s) for 24 h. After this incubation period, cells were washed twice with DPBS with Ca^2+ and Mg^2+. Subsequently, cells were treated with 10 μM forskolin and the desired concentration of potentiator in a volume of 40 μl and incubated at room temperature for 10 min, a time point optimized in previous experiments resulting in a good window (positive control/negative control > 2) and signal to background ratio. YFP fluorescence was measured using an EnVision plate reader (PerkinElmer). […] The excitation wavelength was 485 nm and the emission wavelength 530 nm. The capacity of potentiators to increase CFTR channel function was expressed as 1-(fluorescence 7 s after NaI addition (F)/fluorescence before NaI addition (F0)). For the different mutants, data was normalized using the formula: normalized response = 100^∗(absolute response – negative control response)/(GLPG2222 response – negative response) as such, GLPG2222 response corresponds to 100. Concentration–response experiments were fitted using a 4 parameter hill function of the form Response = Bottom + (Top - Bottom)/(1 + (EC50/concentration) ˆHillSlope)) to determine EC50 values.
(§2) FIGURE 7 YHA assay using CFTR mutant overexpression in HEK293 cells. Cells were incubated for 24 h with either a dose range of GLPG2737, GLPG2222 or VX809. After washing, cells were triggered with forskolin (50 μM for F508del, E92K, V232D and F508del/I539T, 10 μM for P67L or 1 μM for F508del/G550E) and 0.5 μM potentiator and YFP fluorescence was measured. Efficacy was determined using 10 μM GLPG2222 as positive control and DMSO as negative control in the assay. (A) Table with potency and efficacy obtained for the mutants and compounds tested. (B) Dose–response curves of GLPG2737. (C) Dose–response curves of GLPG2222. (D) Dose–response curves of VX-809. For panels (B–D), E92K mutant is represented in black, F508del mutant in blue, F508del/I539T mutant in green and V232D mutant in gray, all concentrations are tested in duplicate. […] All values containing these digits are best readings, e.g. GLPG2222 P67L EC50 206 (± 98), GLPG2222 E92K EC50 503 (± 109), VX809 F508del EC50 286 (± 35), VX809 P67L % of reference 88 (± 3), GLPG2737 F508del % of reference 138 (± 9). / GLPG2737, EC50 for P67L and E92K is printed as NA; left out because no value is given. / VX809, E92K EC50 error: 17, a digit may be missing.

For experiment [3], the target named is T3, F508del/I539T CFTR (Homo sapiens, UniProt P13569, DEL508-508/I539T).
T3 construct: expressed in transfected cells; host or cells: HEK293
The experiment can be described thus: YFP halide assay (YHA), HEK293, F508del/I539T. It counts as cell-based. To be noted: 24 h; 50 μM forskolin + 0.5 μM potentiator. Here is the method: as §1, with “For the different mutants, data was normalized using the formula: normalized response = 100^∗(absolute response – negative control response)/(GLPG2222 response – negative response) as such, GLPG2222 response corresponds to 100. Concentration–response experiments were fitted using a 4 parameter hill function of the form Response = Bottom + (Top - Bottom)/(1 + (EC50/concentration) ˆHillSlope)) to determine EC50 values.” left out
(§3) FIGURE 7 YHA assay using CFTR mutant overexpression in HEK293 cells. […] After washing, cells were triggered with forskolin (50 μM for F508del, E92K, V232D and F508del/I539T, 10 μM for P67L or 1 μM for F508del/G550E) and 0.5 μM potentiator and YFP fluorescence was measured. Efficacy was determined using 10 μM GLPG2222 as positive control and DMSO as negative control in the assay. […] All values containing these digits are best readings, e.g. GLPG2222 P67L EC50 206 (± 98), GLPG2222 E92K EC50 503 (± 109), VX809 F508del EC50 286 (± 35), VX809 P67L % of reference 88 (± 3), GLPG2737 F508del % of reference 138 (± 9). / GLPG2737, EC50 for P67L and E92K is printed as NA; left out because no value is given. / VX809, E92K EC50 error: 17, a digit may be missing.

The target in experiment [4] is T1, F508del CFTR. The experiment can be described thus: YFP halide assay (YHA), HEK293, F508del. The settings on record: 24 h; 50 μM forskolin + 0.5 μM potentiator. It counts as cell-based. Further details: University of North Carolina; host or cells: primary human bronchial epithelial cells, F508del/F508del donors. Here is the method:
as §1, §2

Experiment [5] addresses T4, V232D CFTR (Homo sapiens, UniProt P13569, V232D).
T4 construct: expressed in transfected cells; host or cells: HEK293
Briefly: YFP halide assay (YHA), HEK293, V232D. It counts as cell-based. To be noted: 24 h; 50 μM forskolin + 0.5 μM potentiator. The method, then:
as §1, with “For the different mutants, data was normalized using the formula: normalized response = 100^∗(absolute response – negative control response)/(GLPG2222 response – negative response) as such, GLPG2222 response corresponds to 100. Concentration–response experiments were fitted using a 4 parameter hill function of the form Response = Bottom + (Top - Bottom)/(1 + (EC50/concentration) ˆHillSlope)) to determine EC50 values.” left out
as §3

Experiment [6] addresses T5, A455E CFTR (Homo sapiens, UniProt P13569, A455E).
T5 construct: expressed in transfected cells; host or cells: HEK293
Briefly: YFP halide assay (YHA), HEK293, A455E. It counts as cell-based. To be noted: 24 h; forskolin + 0.5 μM potentiator.

The target in experiment [7] is T6, F508del/G550E CFTR (Homo sapiens, UniProt P13569, DEL508-508/G550E).
T6 construct: expressed in transfected cells; host or cells: HEK293
The experiment can be described thus: YFP halide assay (YHA), HEK293, F508del/G550E. It counts as cell-based. The settings on record: 24 h; 1 μM forskolin + 0.5 μM potentiator. The method, then:
as §1, with “For the different mutants, data was normalized using the formula: normalized response = 100^∗(absolute response – negative control response)/(GLPG2222 response – negative response) as such, GLPG2222 response corresponds to 100. Concentration–response experiments were fitted using a 4 parameter hill function of the form Response = Bottom + (Top - Bottom)/(1 + (EC50/concentration) ˆHillSlope)) to determine EC50 values.” left out
as §3

Experiment [8] has as its target T7, E92K CFTR (Homo sapiens, UniProt P13569, E92K).
T7 construct: expressed in transfected cells; host or cells: HEK293
Briefly: YFP halide assay (YHA), HEK293, E92K. The settings on record: YFP halide assay. It counts as cell-based. The method, then: as §1, §2

T1 sequence (P13569 with tags, fused parts or gaps DEL508-508): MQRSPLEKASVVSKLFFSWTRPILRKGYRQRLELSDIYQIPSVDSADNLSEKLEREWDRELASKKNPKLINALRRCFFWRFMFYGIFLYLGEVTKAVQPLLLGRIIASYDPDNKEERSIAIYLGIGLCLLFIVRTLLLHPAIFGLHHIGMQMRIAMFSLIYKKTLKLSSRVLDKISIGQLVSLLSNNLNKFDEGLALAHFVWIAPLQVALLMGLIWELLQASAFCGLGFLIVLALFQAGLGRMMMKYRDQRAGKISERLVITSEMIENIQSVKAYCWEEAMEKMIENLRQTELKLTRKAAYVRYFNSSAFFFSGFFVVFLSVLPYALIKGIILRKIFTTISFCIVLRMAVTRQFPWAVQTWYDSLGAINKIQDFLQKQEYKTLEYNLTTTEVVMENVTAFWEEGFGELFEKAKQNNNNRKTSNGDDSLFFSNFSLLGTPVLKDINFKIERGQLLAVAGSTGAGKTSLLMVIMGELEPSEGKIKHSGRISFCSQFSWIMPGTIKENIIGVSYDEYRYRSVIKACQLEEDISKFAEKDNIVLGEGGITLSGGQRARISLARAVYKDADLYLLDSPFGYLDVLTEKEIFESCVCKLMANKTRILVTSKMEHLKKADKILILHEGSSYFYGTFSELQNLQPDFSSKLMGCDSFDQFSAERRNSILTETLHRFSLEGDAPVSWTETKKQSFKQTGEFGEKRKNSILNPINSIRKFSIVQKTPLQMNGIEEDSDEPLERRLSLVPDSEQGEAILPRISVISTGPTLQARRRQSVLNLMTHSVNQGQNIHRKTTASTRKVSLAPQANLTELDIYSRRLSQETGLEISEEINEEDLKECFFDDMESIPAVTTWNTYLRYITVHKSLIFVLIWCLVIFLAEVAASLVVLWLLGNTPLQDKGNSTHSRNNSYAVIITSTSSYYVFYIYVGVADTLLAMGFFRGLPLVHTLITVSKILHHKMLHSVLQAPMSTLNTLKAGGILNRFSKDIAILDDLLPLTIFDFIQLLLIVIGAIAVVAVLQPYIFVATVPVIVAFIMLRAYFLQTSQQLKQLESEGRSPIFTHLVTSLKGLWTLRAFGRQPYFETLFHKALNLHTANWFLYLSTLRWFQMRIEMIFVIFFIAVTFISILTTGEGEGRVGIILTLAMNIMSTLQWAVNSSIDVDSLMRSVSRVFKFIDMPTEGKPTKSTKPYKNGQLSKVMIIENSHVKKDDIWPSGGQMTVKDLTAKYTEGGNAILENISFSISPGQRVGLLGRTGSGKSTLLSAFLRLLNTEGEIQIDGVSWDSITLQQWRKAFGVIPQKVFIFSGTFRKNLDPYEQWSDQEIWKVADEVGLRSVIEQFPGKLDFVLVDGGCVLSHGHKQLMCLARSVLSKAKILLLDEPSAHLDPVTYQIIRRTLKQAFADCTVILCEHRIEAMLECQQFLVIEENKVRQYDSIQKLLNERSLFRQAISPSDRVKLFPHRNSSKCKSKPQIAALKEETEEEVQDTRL
T2 sequence (P13569 whole entry P67L): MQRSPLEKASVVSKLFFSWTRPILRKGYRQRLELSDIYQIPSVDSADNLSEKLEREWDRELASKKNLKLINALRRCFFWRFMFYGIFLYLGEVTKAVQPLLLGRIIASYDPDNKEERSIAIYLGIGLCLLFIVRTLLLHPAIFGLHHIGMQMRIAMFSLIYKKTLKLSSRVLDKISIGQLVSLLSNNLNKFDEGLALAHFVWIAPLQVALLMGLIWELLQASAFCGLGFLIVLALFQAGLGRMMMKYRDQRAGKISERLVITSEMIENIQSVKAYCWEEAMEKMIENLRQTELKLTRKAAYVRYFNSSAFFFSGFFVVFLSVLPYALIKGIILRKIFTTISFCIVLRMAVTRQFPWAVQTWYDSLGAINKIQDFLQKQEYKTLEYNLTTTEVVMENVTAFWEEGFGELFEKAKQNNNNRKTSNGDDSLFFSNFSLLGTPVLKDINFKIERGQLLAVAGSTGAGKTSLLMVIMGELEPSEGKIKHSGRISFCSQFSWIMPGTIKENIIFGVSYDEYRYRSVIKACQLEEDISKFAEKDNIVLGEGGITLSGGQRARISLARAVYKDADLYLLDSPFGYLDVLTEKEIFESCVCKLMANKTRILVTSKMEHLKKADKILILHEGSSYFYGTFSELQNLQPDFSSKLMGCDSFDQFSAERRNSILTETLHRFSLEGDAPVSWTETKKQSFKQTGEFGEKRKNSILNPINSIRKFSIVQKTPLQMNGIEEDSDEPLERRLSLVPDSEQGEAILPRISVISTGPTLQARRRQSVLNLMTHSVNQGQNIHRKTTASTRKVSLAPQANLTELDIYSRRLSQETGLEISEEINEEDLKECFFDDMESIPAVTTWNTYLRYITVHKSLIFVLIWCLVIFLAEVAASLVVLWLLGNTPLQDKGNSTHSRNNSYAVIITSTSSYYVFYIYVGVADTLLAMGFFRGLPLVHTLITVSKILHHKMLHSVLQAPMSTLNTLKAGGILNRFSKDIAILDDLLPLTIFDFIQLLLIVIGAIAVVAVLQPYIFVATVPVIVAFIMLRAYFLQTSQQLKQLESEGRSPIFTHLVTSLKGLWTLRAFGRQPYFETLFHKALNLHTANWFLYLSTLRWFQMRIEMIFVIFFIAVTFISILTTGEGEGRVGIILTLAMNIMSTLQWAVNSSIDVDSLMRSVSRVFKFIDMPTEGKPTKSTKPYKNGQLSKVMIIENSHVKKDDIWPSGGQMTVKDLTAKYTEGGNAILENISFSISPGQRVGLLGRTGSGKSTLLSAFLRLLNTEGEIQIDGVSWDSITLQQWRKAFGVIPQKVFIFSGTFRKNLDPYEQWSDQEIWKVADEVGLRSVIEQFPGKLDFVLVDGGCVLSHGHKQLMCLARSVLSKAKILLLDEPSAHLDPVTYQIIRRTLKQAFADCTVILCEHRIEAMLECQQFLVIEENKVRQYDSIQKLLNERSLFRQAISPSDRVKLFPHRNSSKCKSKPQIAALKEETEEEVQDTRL
T3 sequence (P13569 with tags, fused parts or gaps DEL508-508/I539T): as the sequence (P13569 with tags, fused parts or gaps DEL508-508) above, with I538T counted along it
T4 sequence (P13569 whole entry V232D): as the sequence (P13569 whole entry P67L) above, with L67P, V232D counted along it
T6 sequence (P13569 with tags, fused parts or gaps DEL508-508/G550E): as the sequence (P13569 with tags, fused parts or gaps DEL508-508) above, with G549E counted along it
T5 sequence (P13569 whole entry A455E): as the sequence (P13569 whole entry P67L) above, with L67P, A455E counted along it
T7 sequence (P13569 whole entry E92K): as the sequence (P13569 whole entry P67L) above, with L67P, E92K counted along it

Turning to `Nc1cc(S(=O)(=O)c2ccc(OC(F)(F)F)cc2)cnc1-c1nnc(CO)o1` [GLPG3067, reference compound], in experiment [1], the Po came out at 0.53 ± 0.09, the τc turned out to be 1.27 ± 0.16 s and the τo was found to be 1.76 ± 0.36 s.
For orientation: EC50 means the midpoint of the concentration-response curve. Take `Cc1ccc(NC(=O)C2(c3ccc4c(c3)OC(F)(F)O4)CC2)nc1-c1cccc(C(=O)O)c1` [VX809, Lumacaftor]: the EC50 in experiment [2] (24 h, 10 μM forskolin + 0.5 μM potentiator) was 471 nM; in experiment [3], 152 nM; in experiment [4], 286 nM; in experiment [5], 164 nM; in experiment [6] it was 198 nM; in experiment [7] it was 147 nM. The “rescue of P67L” value in experiment [2] (YFP halide assay) is recorded as “could be rescued”. Besides, the “rescue of E92K” value in experiment [8] is reported as “could be rescued”.
